Experimental data taken from article PMC11243693, “Synthesis and Biological Evaluation of New Compounds with Nitroimidazole Moiety” (Molecules, 2024).

How the values were obtained:
A-549 cells = assay: MTT assay, A-549 cells; type: cell-based, human; details: for IC50: A549, A-549 human lung carcinoma, MTT, 24 h, mean SD; for SI (Selectivity Index): IC50 for normal cell line (HaCaT)/IC50 A-549
Experimental: (§1) Colon cancer (SW480), breast adenocarcinoma (MDA-MB-231), lung carcinoma (A-549), prostate cancer (PC3), and immortal keratinocyte (HaCaT) cell lines of human origin were acquired from the American Type Culture Collection (ATCC). The recommended culture media and protocols provided by ATCC were as follows: SW480 were cultured in Minimum Essential Medium (MEM), MDA-MB-231, A-549, and HaCaT cells were cultured in Dulbecco’s Modified Eagle Medium (DMEM), while PC3 was cultured in Roswell Park Memorial Institute Medium (RPMI). The culture media were supplemented with 10% fetal bovine serum (FBS), penicillin (100 U/mL), and streptomycin (100 μg/mL). Cells were maintained in a humidified incubator at 37 °C with 5% CO2. Passaging was carried out upon reaching 80–90% confluence using 0.25% trypsin (Gibco Life Technologies, New York, NY, USA) treatment prior to experimentation.
(§2) Cell viability was assessed utilizing the MTT assay, which relies on the conversion of 3-(4,5-dimethylthiazol-2-yl)-2,5-diphenyltetrazolium bromide salt (MTT) to formazan crystals by mitochondrial dehydrogenases in viable cells. Initially, cells were plated in 96-well plates at a density of 1 × 10^4 cells per well and allowed to attach for 24 h at 37 °C in a CO2 incubator. Subsequently, the culture medium was replaced with fresh medium containing various concentrations of the test compounds (ranging from 1 to 100 μM), and cells were further cultured for 24 h at 37 °C in a CO2 incubator. Control wells were left untreated for comparison. After the incubation period, MTT solution (0.5 mg/mL in serum-free medium) was added to each well, followed by a 4-h incubation at 37 °C in a CO2 incubator. The medium was then aspirated, and the formazan crystals were dissolved by adding a mixture of isopropanol and DMSO (1:1). The absorbance of the resulting solution was measured at 570 nm using a UVM 340 reader (ASYS Hitech GmbH, Seekirchen am Wallersee, Austria). IC50 values were determined using GraphPad software (GraphPad Prism 8 Software).

MDA-MB-231 cells = assay: MTT assay, MDA-MB-231 cells; type: cell-based, human; details: for IC50: MDA-MB-231 human breast adenocarcinoma, MTT, 24 h, mean SD; for SI (Selectivity Index): IC50 for normal cell line (HaCaT)/IC50 MDA-MB-231
Experimental: as §1, §2

PC3 cells = assay: MTT assay, PC3 cells; type: cell-based, human; details: for SI (Selectivity Index): IC50 for normal cell line (HaCaT)/IC50 PC3; for IC50: PC-3, PC3 human metastatic prostate cancer, MTT, 24 h, mean SD
Experimental: as §1, §2

HaCaT cells = assay: MTT assay, HaCaT normal cells; type: cell-based; details: HaCaT human immortal keratinocyte (normal cells), 24 h, mean SD
Experimental: as §1, §2

SW620 cells = assay: MTT assay, SW620 cells; type: cell-based, human; details: for SI (Selectivity Index): IC50 for normal cell line (HaCaT)/IC50 SW620; for IC50: SW-620, SW620 human metastatic colon cancer, MTT, 24 h, mean SD

Row | IC50 (A-549 cells) | IC50 (MDA-MB-231 cells) | IC50 (PC3 cells) | IC50 (SW620 cells) | melting point | Compound | SI (Selectivity Index) (PC3 cells) | IC50 (HaCaT cells) | SI (Selectivity Index) (SW620 cells) | SI (Selectivity Index) (A-549 cells) | SI (Selectivity Index) (MDA-MB-231 cells)
1 | > 100 µM | > 100 µM | 70.2 ± 4.2 µM | 64.2 ± 6.88 µM | 214 to 216 °C | COc1ccc(C=NNC(=O)c2nc([N+](=O)[O-])cn2C)c(O)c1 [Compound 30, N’-[(2-hydroxy-4-methoxyphenyl)methylidene]-1-methyl-4-nitro-1H-imidazole-2-carbohydrazide] | 1.4 | 97 ± 5.48 µM | 1.5 |  | 
2 | > 100 µM | > 100 µM | 70.4 ± 2.76 µM | 86.3 ± 3.81 µM | 236 to 238 °C | COc1ccc(O)c(C=NNC(=O)c2nc([N+](=O)[O-])cn2C)c1 [Compound 31, N’-[(2-hydroxy-5-methoxyphenyl)methylidene]-1-methyl-4-nitro-1H-imidazole-2-carbohydrazide] |  | > 100 µM |  | 1 | 1
3 | 0.2 ± 0.09 µM | 1.6 ± 0.23 µM | 0.3 ± 0.1 µM | 0.3 ± 0.1 µM |  | COc1cccc2c1C(=O)c1c(O)c3c(c(O)c1C2=O)C[C@@](O)(C(=O)CO)C[C@@H]3O[C@H]1C[C@H](N)[C@H](O)[C@H](C)O1 [Doxo-rubicin, doxorubicin] | 1 | 0.3 ± 0.1 µM | 1.0 | 1.5 | 0.19
